From ChEMBL document CHEMBL3112498, “Inhibition of protein kinase C α/βII and activation of c-Jun NH2-terminal kinase mediate glycyrrhetinic acid induced apoptosis in non-small cell lung cancer NCI-H460 cells” (Bioorg Med Chem Lett, 2014)
Values after ≈ are worked out from the molar mass of the structure shown. Active and inactive are the calls of the source. No cut-off for these calls is given here.

Experiments:
[1] = system: A549; assay: Induction of apoptosis in human A549 cells assessed as PARP cleavage at 12.5 to 50 uM after 24 hrs by Western blot analysis; format: functional, cell-based
[2] = system: NCI-H460; assay: Induction of apoptosis in human NCI-H460 cells assessed as PARP cleavage at 12.5 to 50 uM after 24 hrs by Western blot analysis; format: functional, cell-based
[3] = system: NCI-H460; assay: Induction of apoptosis in human NCI-H460 cells assessed as PARP cleavage at 50 uM after 24 hrs by Western blot analysis in presence of PKC promoter PMA, JNK inhibitor SP600125; format: functional, cell-based
[4] = system: NCI-H460; assay: Inhibition of ERK phosphorylation in human NCI-H460 cells at 12.5 to 50 uM after 24 hrs by Western blot analysis; format: cell-based
[5] = system: NCI-H460; assay: Cell cycle arrest in human NCI-H460 cells assessed as accumulation at sub-G1 phase at 12.5 uM after 1 hr by propidium iodide staining-based flow cytometric analysis (reference value: 2.2%); format: functional
[6] = molecular target: T1, PKC alpha and beta-2 (Homo sapiens) (UniProt P17252+P05771); assay: Inhibition of PKC alpha/beta-2 phosphorylation in human NCI-H460 cells at 12.5 to 50 uM after 24 hrs by Western blot analysis; format: cell-based
T1 sequence (P05771 whole entry, looked up): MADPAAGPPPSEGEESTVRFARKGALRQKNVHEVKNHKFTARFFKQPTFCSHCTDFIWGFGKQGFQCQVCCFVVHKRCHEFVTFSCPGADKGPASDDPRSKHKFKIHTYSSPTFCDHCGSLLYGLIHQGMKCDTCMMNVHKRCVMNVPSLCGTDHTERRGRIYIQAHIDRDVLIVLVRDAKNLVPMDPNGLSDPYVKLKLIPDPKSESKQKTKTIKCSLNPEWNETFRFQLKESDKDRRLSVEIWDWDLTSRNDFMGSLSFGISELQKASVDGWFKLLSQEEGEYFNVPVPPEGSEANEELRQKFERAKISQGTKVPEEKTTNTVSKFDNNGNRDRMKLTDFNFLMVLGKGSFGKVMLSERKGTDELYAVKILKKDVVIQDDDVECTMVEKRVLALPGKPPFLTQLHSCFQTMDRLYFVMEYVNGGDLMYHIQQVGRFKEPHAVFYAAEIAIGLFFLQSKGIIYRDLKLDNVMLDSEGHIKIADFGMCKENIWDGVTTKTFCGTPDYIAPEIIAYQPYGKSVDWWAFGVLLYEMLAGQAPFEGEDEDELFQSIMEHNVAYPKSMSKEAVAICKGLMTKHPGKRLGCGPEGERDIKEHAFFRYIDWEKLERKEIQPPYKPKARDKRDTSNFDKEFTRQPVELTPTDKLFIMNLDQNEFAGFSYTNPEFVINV

[7] = system: A549; assay: Cell cycle arrest in human A549 cells assessed as accumulation at sub-G1 phase at 50 uM after 1 hr by propidium iodide staining-based flow cytometric analysis; format: functional
[8] = molecular target: T1, PKC alpha and beta-2 (Homo sapiens); assay: Inhibition of PKC alpha/beta-2 phosphorylation in human NCI-H460 cells at 50 uM after 24 hrs by Western blot analysis in presence of PKC promoter PMA, JNK inhibitor SP600125; format: cell-based
[9] = system: NCI-H460; assay: Induction of apoptosis in human NCI-H460 cells assessed as caspase-3 cleavage at 50 uM after 24 hrs by Western blot analysis in presence of PKC promoter PMA, JNK inhibitor SP600125; format: functional, cell-based
[10] = system: NCI-H460; assay: Induction of apoptosis in human NCI-H460 cells assessed as downregulation of Bcl-xL protein expression at 12.5 to 50 uM after 24 hrs by Western blot analysis; format: functional, cell-based
[11] = system: NCI-H460; assay: Cell cycle arrest in human NCI-H460 cells assessed as accumulation at sub-G1 phase at 50 uM after 24 hrs by propidium iodide staining-based flow cytometric analysis in presence of PKC promoter PMA, JNK inhibitor SP600125; format: functional
[12] = system: NCI-H460; assay: Cell cycle arrest in human NCI-H460 cells assessed as accumulation at sub-G1 phase after 1 hr by propidium iodide staining-based flow cytometric analysis; format: functional
[13] = system: NCI-H460; assay: Cytotoxicity against human NCI-H460 cells assessed as cell viability after 24 hrs by XTT assay; format: functional, cell-based; settings: NCI-H460, 24 h
[14] = system: NCI-H460; assay: Induction of apoptosis in human NCI-H460 cells assessed as downregulation of Bcl-2 protein expression at 12.5 to 50 uM after 24 hrs by Western blot analysis; format: functional, cell-based
[15] = system: NCI-H460; assay: Induction of apoptosis in human NCI-H460 cells assessed as DNA fragmentation after 24 hrs by DAPI staining-based TUNEL assay; format: functional, cell-based
[16] = system: NCI-H460; assay: Cell cycle arrest in human NCI-H460 cells assessed as accumulation at sub-G1 phase at 50 uM after 1 hr by propidium iodide staining-based flow cytometric analysis (reference value: 2.2%); format: functional
[17] = system: NCI-H460; assay: Induction of apoptosis in human NCI-H460 cells assessed as activation of caspase 9/3 at 12.5 to 50 uM after 24 hrs by Western blot analysis; format: functional, cell-based
[18] = system: NCI-H460; assay: Induction of apoptosis in human NCI-H460 cells assessed as downregulation of cyclin E protein expression at 12.5 to 50 uM after 24 hrs by Western blot analysis; format: functional, cell-based
[19] = molecular target: Protein kinase C delta type (Homo sapiens) (UniProt Q05655); assay: Induction of PKC-delta phosphorylation in human NCI-H460 cells at 12.5 to 50 uM after 24 hrs by Western blot analysis; format: cell-based
Sequence of Protein kinase C delta type (Homo sapiens) (Q05655 whole entry, looked up): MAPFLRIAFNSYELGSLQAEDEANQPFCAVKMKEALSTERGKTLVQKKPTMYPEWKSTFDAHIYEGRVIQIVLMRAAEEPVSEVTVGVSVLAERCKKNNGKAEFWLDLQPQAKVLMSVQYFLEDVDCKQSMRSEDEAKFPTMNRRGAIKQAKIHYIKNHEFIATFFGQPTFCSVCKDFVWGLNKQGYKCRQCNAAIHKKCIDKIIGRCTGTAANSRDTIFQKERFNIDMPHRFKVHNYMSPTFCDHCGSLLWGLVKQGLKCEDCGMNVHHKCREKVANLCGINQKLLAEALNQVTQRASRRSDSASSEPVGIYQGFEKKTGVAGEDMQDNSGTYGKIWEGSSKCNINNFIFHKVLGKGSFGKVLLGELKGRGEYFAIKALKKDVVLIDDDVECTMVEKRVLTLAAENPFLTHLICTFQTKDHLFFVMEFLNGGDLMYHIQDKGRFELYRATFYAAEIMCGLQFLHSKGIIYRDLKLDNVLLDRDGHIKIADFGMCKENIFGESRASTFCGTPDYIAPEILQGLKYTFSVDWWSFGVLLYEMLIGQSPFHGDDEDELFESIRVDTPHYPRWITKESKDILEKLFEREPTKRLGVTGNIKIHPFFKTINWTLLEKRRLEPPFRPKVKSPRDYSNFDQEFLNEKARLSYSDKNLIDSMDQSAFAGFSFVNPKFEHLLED

[20] = system: NCI-H460; assay: Induction of apoptosis in human NCI-H460 cells assessed as downregulation of cyclin D1 protein expression at 12.5 to 50 uM after 24 hrs by Western blot analysis; format: functional, cell-based
[21] = molecular target: c-Jun N-terminal kinase, JNK (Homo sapiens) (UniProt P45983+P53779+P45984); assay: Induction of c-Jun N-terminal kinase phosphorylation in human NCI-H460 cells at 12.5 to 50 uM after 24 hrs by Western blot analysis; format: cell-based
[22] = system: A549; assay: Cytotoxicity against human A549 cells assessed as cell viability after 24 hrs by XTT assay; format: functional, cell-based; settings: A549, 24 h

CC1(C)[C@@H](O)CC[C@]2(C)[C@H]3C(=O)C=C4[C@@H]5C[C@@](C)(C(=O)O)CC[C@]5(C)CC[C@@]4(C)[C@]3(C)CC[C@@H]12 [ENOXOLONE]
Activity [1]: Active | Activity [2]: Active | Activity [3]: inactive | inhibition [4]: Active | Activity [5]: 2.8% | inhibition [6]: Active | Activity [7]: Active | inhibition [8]: inactive | Activity [9]: inactive | Activity [10]: Active | Activity [11]: inactive | Activity [12]: Dose-dependent effect | IC50 [13]: 62 µg/mL (≈ 132 µM) | Activity [14]: Active | Activity [15]: Dose-dependent effect | Activity [16]: 40.1% | Activity [17]: Active | Activity [18]: Active | Activity [19]: Active | Activity [20]: Active | Activity [21]: Active | IC50 [22]: 78 µg/mL (≈ 166 µM)
